Measured values published in patent publication US20240317752A1, “6-SUBSTITUTED-9H-PURINE DERIVATIVES AND RELATED USES” (Black Diamond Therapeutics, Inc., priority 2021, published 2024).

molecular target: T1, BaF3 BRAF-KIAA1549 fusion cells (Homo sapiens, UniProt P15056); assay: BaF3 BRAF-KIAA1549 fusion cell proliferation assay (CellTiterGlo); assay type: cell-based; conditions: 96 hours incubation, potency code
T1 construct: The BRAF-KIAA1549 fusion mutant was subcloned into pMXs-IRES-Blasticidin (RTV-016, Cell Biolabs, San Diego, CA); fused on or other part: Q9HCM3 (UPF0606 protein KIAA1549)
T1 sequence (P15056 whole entry, change not shown, the tested form may be a part): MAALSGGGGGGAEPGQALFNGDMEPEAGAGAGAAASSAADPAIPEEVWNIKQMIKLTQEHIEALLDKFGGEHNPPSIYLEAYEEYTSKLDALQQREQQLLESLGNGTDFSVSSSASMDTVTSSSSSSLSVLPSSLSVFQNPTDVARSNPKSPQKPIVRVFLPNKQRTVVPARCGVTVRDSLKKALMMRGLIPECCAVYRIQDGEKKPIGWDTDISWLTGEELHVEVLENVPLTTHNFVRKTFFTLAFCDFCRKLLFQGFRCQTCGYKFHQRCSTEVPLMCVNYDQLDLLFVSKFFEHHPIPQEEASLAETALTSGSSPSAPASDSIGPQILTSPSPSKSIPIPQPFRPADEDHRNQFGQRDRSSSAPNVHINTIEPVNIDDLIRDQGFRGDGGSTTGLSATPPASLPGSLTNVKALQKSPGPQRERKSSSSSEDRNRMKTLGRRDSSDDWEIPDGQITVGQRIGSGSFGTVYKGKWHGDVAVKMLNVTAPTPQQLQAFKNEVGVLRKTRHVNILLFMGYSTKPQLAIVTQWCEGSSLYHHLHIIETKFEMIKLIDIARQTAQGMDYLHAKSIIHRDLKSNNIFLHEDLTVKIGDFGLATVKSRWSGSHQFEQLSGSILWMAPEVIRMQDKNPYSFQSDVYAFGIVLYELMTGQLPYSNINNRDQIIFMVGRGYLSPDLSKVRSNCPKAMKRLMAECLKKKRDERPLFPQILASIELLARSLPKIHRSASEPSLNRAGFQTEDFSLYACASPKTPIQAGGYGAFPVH
Experimental: Retroviral Production: The BRAF-KIAA1549 fusion mutant was subcloned into pMXs-IRES-Blasticidin (RTV-016, Cell Biolabs, San Diego, CA). Retrovirus was produced by transfection of HEK 293T cells with the retroviral BRAF mutant expression vector pMXs-IRES-Blasticidin (RTV-016, Cell Biolabs), pCMV-Gag-Pol vector and pCMV-VSV-G-Envelope vector. Briefly, HEK 293T cells were plated in Poly-D-lysine coated 6-well plate (2.5×10^5 cells per well) and incubated overnight. The next day, retroviral plasmids (1 μg of BRAF-KIAA fusion mutant, 0.32 μg of pCMV-Gag-Pol and 0.165 μg pCMV-VSV-G) were mixed in 300 μL of Optimem (31985, Life Technologies). The mixture was incubated at room temperature for 5 minutes and then added to Optimem containing transfection reagent Lipofectamine (11668, Invitrogen) and incubated for 20 minutes. The mixture was then added dropwise to HEK 293T cells. The next day the medium was replaced with fresh culture medium and retrovirus was harvested at 24 hours.
Generation of BRAF-KIAA1549 fusion stable cell line: BaF3 cells were plated in V-bottom 96 well plate (COSTAR #3894) in 80 μL of RPMI/10% FBS and 0.01 ng/ml mouse IL-3; supplemented with 8 μg/mL polybrene (4×10^4 cells/well). Cells were transduced with 20 μL of BRAF-KIAA1549 fusion viral supernatant by centrifuging for 30 minutes at 1000 rpm. Cells were placed in a 37° C. incubator overnight. Next day 100 μL of RPMI/10% FBS and 0.01 ng/ml mouse IL-3 was added. After 24 hours, 100 μL of cells were transferred to a 24 well plate containing 900 μL of RPMI/10% FBS and 15 μg/mL Blasticidin. Contents of the 24 well plate were sampled for cell viability via CellTiterGlo (Promega) over a 2-week period.
Assay for cell proliferation: BaF3 BRAF-KIAA1549 fusion cells were resuspended at 1.5×10^5c/mL in RPMI containing 10% Heat Inactivated FBS, 1% L-glutamine and dispensed in duplicate ([…]) into 384 well plates. To determine the effect of compound on cell proliferation, BaF3 BRAF-KIAA1549 fusion cells were incubated for 96 hours in the presence of vehicle control (DMSO) or compound at varying concentrations. Inhibition of cell growth was determined by luminescent quantification (Envision by Perkin Elmer) of intracellular ATP content using CellTiterGlo (Promega), according to the protocol provided by the manufacturer. To determine the IC50 values, the vehicle-treated cells were normalized as viable cells and analyzed using the CDD Vault, Collaborative Drug Discovery, Burlingame, CA (the Levenberg-Marquardt algorithm; Levenberg, K., […]; Marquardt, D., 1963).
Tables A1 and A2 assign each compound a code for potency in the BaF3 BRAF-KIAA1549 fusion cell proliferation assay: A, B, C, or D. According to the code, A represents an IC50 value <20 nM; B represents an IC50 value ≥20 nM and <100 nM; C represents an IC50 value ≥100 nM and <500 nM; and D represents an IC50 value ≥500 nM.

SMILES	GI50
Cc1ccc(NC(=O)c2cc(C3CC3)ccn2)cc1Nc1ncccc1-c1ncnc2[nH]cnc12 [Compound I-55, N-(3-(3-(9H-purin-6-yl)pyridin-2-ylamino)-4-methylphenyl)-4-cyclopropylpicolinamide]	< 20 nM
Cc1ccc(NC(=O)c2cc(C3CC3)c(Cl)cn2)cc1Nc1ncccc1-c1ncnc2[nH]cnc12 [Compound I-56, N-(3-((3-(9H-purin-6-yl)pyridin-2-yl)amino)-4-methylphenyl)-5-chloro-4-cyclopropylpicolinamide]	≥ 500 nM
Cc1ccc(NC(=O)c2cccc(C(C)(C)C#N)c2)nc1Nc1ncccc1-c1ncnc2[nH]cnc12 [Compound I-57, N-(6-((3-(9H-purin-6-yl)pyridin-2-yl)amino)-5-methylpyridin-2-yl)-3-(2-cyanopropan-2-yl)benzamide]	≥ 500 nM
Cc1ncc(C(=O)Nc2cccc(C3(C#N)CC3)c2)cc1Nc1ncccc1-c1ncnc2[nH]cnc12 [Compound I-58, 5-((3-(9H-purin-6-yl)pyridin-2-yl)amino)-N-(3-(1-cyanocyclopropyl)phenyl)-6-methylnicotinamide]	20 to 100 nM
Cc1ccc(NC(=O)c2ccc(C(F)(F)F)c(C#N)n2)cc1Nc1ncccc1-c1ncnc2[nH]cnc12 [Compound I-59, N-(3-((3-(9H-purin-6-yl)pyridin-2-yl)amino)-4-methylphenyl)-6-cyano-5-(trifluoromethyl)picolinamide]	100 to 500 nM
Cc1c(F)cc(C(=O)Nc2cccc(C3(C#N)CC3)c2)cc1Nc1ncccc1-c1ncnc2[nH]cnc12 [Compound I-60, 3-((3-(9H-purin-6-yl)pyridin-2-yl)amino)-N-(3-(1-cyanocyclopropyl)phenyl)-5-fluoro-4-methylbenzamide]	< 20 nM
Cc1ncc(NC(=O)c2ccnc(C3(F)CC3)c2)cc1Nc1ncccc1-c1ncnc2[nH]cnc12 [Compound I-61, N-(5-((3-(9H-purin-6-yl)pyridin-2-yl)amino)-6-methylpyridin-3-yl)-2-(1-fluorocyclopropyl)isonicotinamide]	20 to 100 nM
Cc1c(F)cc(NC(=O)c2ccnc(C3(C#N)CC3)c2)cc1Nc1ncccc1-c1ncnc2[nH]cnc12 [Compound I-62, N-(3-((3-(9H-purin-6-yl)pyridin-2-yl)amino)-5-fluoro-4-methylphenyl)-2-(1-cyanocyclopropyl)isonicotinamide]	< 20 nM
Cc1cc(NC(=O)c2cc(C(F)(F)F)ccn2)cc(Nc2ncccc2-c2ncnc3[nH]cnc23)c1C [Compound I-63, N-(3-((3-(9H-purin-6-yl)pyridin-2-yl)amino)-4,5-dimethylphenyl)-4-(trifluoromethyl)picolinamide]	100 to 500 nM
Cc1ccc(NC(=O)c2cc(C3(C#N)CCC3)ccn2)cc1Nc1ncccc1-c1ncnc2[nH]cnc12 [Compound I-64, N-(3-((3-(9H-purin-6-yl)pyridin-2-yl)amino)-4-methylphenyl)-4-(1-cyanocyclobutyl)picolinamide]	< 20 nM
Cc1ccc(NC(=O)c2nccc(C(F)(F)F)c2C)cc1Nc1ncccc1-c1ncnc2[nH]cnc12 [Compound I-65, N-(3-((3-(9H-purin-6-yl)pyridin-2-yl)amino)-4-methylphenyl)-3-methyl-4-(trifluoromethyl)picolinamide]	< 20 nM
Cc1ccc(NC(=O)c2ccnc(C3(C#N)CCC3)c2)cc1Nc1ncccc1-c1ncnc2[nH]cnc12 [Compound I-66, N-(3-((3-(9H-purin-6-yl)pyridin-2-yl)amino)-4-methylphenyl)-2-(1-cyanocyclobutyl)isonicotinamide]	< 20 nM
Cc1ccc(-c2ncnc3[nH]cnc23)c(Nc2cc(NC(=O)c3cc(C(F)(F)F)ccn3)ccc2C)n1 [Compound I-67, N-(4-methyl-3-((6-methyl-3-(9H-purin-6-yl)pyridin-2-yl)amino)phenyl)-4-(trifluoromethyl)picolinamide]	20 to 100 nM
CCc1ccc(NC(=O)c2cc(C(F)(F)F)ccn2)cc1Nc1ncccc1-c1ncnc2[nH]cnc12 [Compound I-68, N-(3-((3-(9H-purin-6-yl)pyridin-2-yl)amino)-4-ethylphenyl)-4-(trifluoromethyl)picolinamide]	20 to 100 nM
Cc1ccc(NC(=O)c2ccc(Cl)c(OC(F)(F)F)c2)cc1Nc1ncccc1-c1ncnc2[nH]cnc12 [Compound I-69, N-(3-((3-(9H-purin-6-yl)pyridin-2-yl)amino)-4-methylphenyl)-4-chloro-3-(trifluoromethoxy)benzamide]	20 to 100 nM
Cc1ccc(NC(=O)c2cnc(C(F)(F)F)c(C#N)c2)cc1Nc1ncccc1-c1ncnc2[nH]cnc12 [Compound I-70, N-(3-((3-(9H-purin-6-yl)pyridin-2-yl)amino)-4-methylphenyl)-5-cyano-6-(trifluoromethyl)nicotinamide]	20 to 100 nM
Cc1cnc(C(=O)Nc2ccc(C)c(Nc3ncccc3-c3ncnc4[nH]cnc34)c2)cc1C#N [Compound I-71, N-(3-((3-(9H-purin-6-yl)pyridin-2-yl)amino)-4-methylphenyl)-4-cyano-5-methylpicolinamide]	20 to 100 nM
Cc1c(F)cc(NC(=O)c2ccnc(C3(F)CC3)c2)cc1Nc1ncccc1-c1ncnc2[nH]cnc12 [Compound I-72, N-(3-((3-(9H-purin-6-yl)pyridin-2-yl)amino)-5-fluoro-4-methylphenyl)-2-(1-fluorocyclopropyl)isonicotinamide]	< 20 nM
Cc1ccc(NC(=O)c2ccc3c(c2)OCO3)cc1Nc1ncccc1-c1ncnc2[nH]cnc12 [Compound I-74, N-(3-((3-(9H-purin-6-yl)pyridin-2-yl)amino)-4-methylphenyl)benzo[d][1,3]dioxole-5-carboxamide]	20 to 100 nM
Cc1ccc(NC(=O)CC2CCOC(C(F)(F)F)C2)cc1Nc1ncccc1-c1ncnc2[nH]cnc12 (stereo not shown) [Compound I-75, N-(3-((3-(9H-purin-6-yl)pyridin-2-yl)amino)-4-methylphenyl)-2-(2-(trifluoromethyl)tetrahydro-2H-pyran-4-yl)acetamide]	20 to 100 nM
Cc1ccc(NC(=O)CC2CCNC(C(F)(F)F)C2)cc1Nc1ncccc1-c1ncnc2[nH]cnc12 (stereo not shown) [Compound I-76, N-(3-((3-(9H-purin-6-yl)pyridin-2-yl)amino)-4-methylphenyl)-2-(2-(trifluoromethyl)piperidin-4-yl)acetamide]	≥ 500 nM
Cc1ccc(NC(=O)CN2CCCC(C(F)(F)F)C2)cc1Nc1ncccc1-c1ncnc2[nH]cnc12 (stereo not shown) [Compound I-77, N-(3-((3-(9H-purin-6-yl)pyridin-2-yl)amino)-4-methylphenyl)-2-(3-(trifluoromethyl)piperidin-1-yl)acetamide]	< 20 nM
Cc1ccc(NC(=O)Cn2cnc(C(F)(F)F)n2)cc1Nc1ncccc1-c1ncnc2[nH]cnc12 [Compound I-78, N-(3-((3-(9H-purin-6-yl)pyridin-2-yl)amino)-4-methylphenyl)-2-(3-(trifluoromethyl)-1H-1,2,4-triazol-1-yl)acetamide]	20 to 100 nM
Cc1ccc(C(=O)Nc2cc(C(C)(C)C)nn2C2CC2)cc1Nc1ncccc1-c1ncnc2[nH]cnc12 [Compound I-79, 3-((3-(9H-purin-6-yl)pyridin-2-yl)amino)-N-(3-(tert-butyl)-1-cyclopropyl-1H-pyrazol-5-yl)-4-methylbenzamide]	100 to 500 nM
Cc1ccc(NC(=O)c2cccc(N(C)C)c2)cc1Nc1ncccc1-c1ncnc2[nH]cnc12 [Compound I-80, N-(3-((3-(9H-purin-6-yl)pyridin-2-yl)amino)-4-methylphenyl)-3-(dimethylamino)benzamide]	< 20 nM
